Data taken from US20090156577A1, “7-AMINO ALKYLIDENYL-HETEROCYCLIC QUINOLONES AND NAPHTHYRIDONES” (priority 2004, published 2009).
≈ marks a conversion by molar mass, not a printed value. Where a name gives a salt, the structure may show the parent alone. Read-outs that look alike come from different tables or passages of the source.

Test system: pathogenic bacteria
Test: MIC by microdilution broth method (NCCLS M7-A4), in vitro antibacterial activity
Assay type: cell-based
Procedure, shortened: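 Broth microdilution per NCCLS M7-A4: two-fold serial dilutions in cation-adjusted Mueller-Hinton broth, inoculum about 5×10^4 CFU/well. Trays incubated 16–20 h at 35 °C. MIC read by comparing growth against no-compound growth controls.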

[1] = Staphylococcus aureus, Organism A: Staphylococcus aureus OC4172, read-out: MIC
[2] = Streptococcus pneumoniae, ATCC49619, Organism E: Streptococcus pneumoniae ATCC 49619, read-out: MIC
[3] = Streptococcus pneumoniae, Organism B: fluoroquinolone-resistant clinical isolate of Streptococcus pneumoniae (QRDR amino acid substitutions)
[4] = Streptococcus pneumoniae, Organism C: fluoroquinolone-resistant clinical isolate of Streptococcus pneumoniae (QRDR amino acid substitutions)
[5] = Streptococcus pneumoniae, Organism D: fluoroquinolone-resistant clinical isolate of Streptococcus pneumoniae (QRDR amino acid substitutions)

With `O=C(O)c1cn(C2CC2)c2nc(N3CC(=C(Cl)CO)C3)c(F)cc2c1=O` [Compound 357, 7-[3-(1-Chloro-2-hydroxy-ethylidene)-azetidin-1-yl]-1-cyclopropyl-6-fluoro-4-oxo-1,4-dihydro-[1,8]naphthyridine-3-carboxylic Acid] the MIC [1] was 0.25 µg/mL (≈ 0.658 µM), the MIC [2] was 1 µg/mL (≈ 2.63 µM) and the MIC [3] was 8 µg/mL (≈ 21.1 µM). It also gave an MIC [4] of 16 µg/mL (≈ 42.1 µM) and an MIC [5] of 4 µg/mL (≈ 10.5 µM).
`NCC(Cl)=C1CN(c2c(F)cc3c(=O)c(C(=O)O)cn(C4CC4)c3c2OC(F)F)C1` [Compound 205, 7-[3-(2-Amino-1-chloro-ethylidene)-azetidin-1-yl]-1-cyclopropyl-8-difluoromethoxy-6-fluoro-4-oxo-1,4-dihydro-quinoline-3-carboxylic acid] was tested, and the MIC [1] was 0.25 µg/mL (≈ 0.563 µM), the MIC [2] was 0.5 µg/mL (≈ 1.13 µM) and the MIC [3] was 2 µg/mL (≈ 4.51 µM). The MIC [4] was 8 µg/mL (≈ 18 µM) and the MIC [5] was 4 µg/mL (≈ 9.01 µM).
`C[C@H]1COc2c(N3CCC(=C(Cl)CN)CC3)c(F)cc3c(=O)c(C(=O)O)cn1c23` [Compound 277, 9-[4-(2-Amino-1-chloro-ethylidene)-piperidin-1-yl]-8-fluoro-(3S)-3-methyl-6-oxo-2,3-dihydro-6H-1-oxa-3a-aza-phenalene-5-carboxylic acid] was tested, and the MIC [1] was at most 0.015 µg/mL, the MIC [2] was 0.03 µg/mL (≈ 0.0711 µM) and the MIC [3] was 0.25 µg/mL (≈ 0.593 µM). For the same molecule, the MIC [4] was 0.25 µg/mL (≈ 0.593 µM) and the MIC [5] was 0.5 µg/mL (≈ 1.19 µM).
Work on `C[C@H]1COc2c(N3CCC/C(=C(/Cl)CN)C3)c(F)cc3c(=O)c(C(=O)O)cn1c23` [Compound 448, (Z)-9-[3-(2-Amino-1-chloro-ethylidene)-piperidin-1-yl]-8-fluoro-(3S)-3-methyl-6-oxo-2,3-dihydro-6H-1-oxa-3a-aza-phenalene-5-carboxylic acid] yielded an MIC [1] of 0.25 µg/mL (≈ 0.593 µM), an MIC [2] of 2 µg/mL (≈ 4.74 µM) and an MIC [4] of 8 µg/mL (≈ 19 µM). The MIC [5] was 16 µg/mL (≈ 37.9 µM).
In the case of `C=CC(Cl)=C1CCN(c2nc3c(cc2F)c(=O)c(C(=O)O)cn3C2CC2)CC1` [Compound 178, 7-[4-(1-Chloro-allylidene)-piperidin-1-yl]-1-cyclopropyl-6-fluoro-4-oxo-1,4-dihydro-[1,8]naphthyridine-3-carboxylic acid], the MIC [1] is reported as 0.5 µg/mL (≈ 1.24 µM), the MIC [2] is reported as 4 µg/mL (≈ 9.9 µM) and the MIC [3] is reported as 1 µg/mL (≈ 2.48 µM). For the same molecule, the MIC [4] was 8 µg/mL (≈ 19.8 µM) and the MIC [5] was 4 µg/mL (≈ 9.9 µM).
`NC/C(F)=C1/COCCN(c2nc3c(cc2F)c(=O)c(C(=O)O)cn3C2CC2)C1` [Compound 497, (Z)-7-[6-(2-Amino-1-fluoro-ethylidene)-[1,4]oxazepan-4-yl]-1-cyclopropyl-6-fluoro-4-oxo-1,4-dihydro-[1,8]naphthyridine-3-carboxylic acid] gave an MIC [1] of 1 µg/mL (≈ 2.46 µM), an MIC [2] of 4 µg/mL (≈ 9.84 µM) and an MIC [3] of over 1 µg/mL. For the same molecule, the MIC [4] was over 16 µg/mL and the MIC [5] was over 16 µg/mL.
In the case of `NC/C(Cl)=C1/CCCN(c2c(F)cc3c(=O)c(C(=O)O)cn(-c4nc(N)c(F)cc4F)c3c2Cl)C1` [Compound 412, (E)-1-(6-Amino-3,5-difluoro-pyridin-2-yl)-7-[3-(2-amino-1-chloro-ethylidene)-piperidin-1-yl]8-chloro-6-fluoro-4-oxo-1,4-dihydro-quinoline-3-carboxylic acid], the MIC [1] is reported as 0.12 µg/mL (≈ 0.227 µM), the MIC [2] is reported as 1 µg/mL (≈ 1.89 µM) and the MIC [3] is reported as 16 µg/mL (≈ 30.3 µM). It also gave an MIC [4] of over 16 µg/mL and an MIC [5] of 8 µg/mL (≈ 15.1 µM).
In the case of `Nc1nc(-n2cc(C(=O)O)c(=O)c3cc(F)c(N4CCC/C(=C(/F)CO)C4)c(Cl)c32)c(F)cc1F` [Compound 359, (Z)-1-(6-Amino-3,5-difluoro-pyridin-2-yl)-8-chloro-6-fluoro-7-[3-(1-fluoro-2-hydroxy-ethylidene)-piperidin-1-yl]-4-oxo-1,4-dihydroquinoline-3-carboxylic Acid Trifluoroacetate], the MIC (Staphylococcus aureus, Organism A: Staphylococcus aureus OC4172) is reported as 0.12 µg/mL, the MIC (Streptococcus pneumoniae, ATCC49619, Organism E: Streptococcus pneumoniae ATCC 49619) is reported as 1 µg/mL and the MIC [4] is reported as 8 µg/mL. It also gave an MIC [5] of 16 µg/mL.
With `C[C@H]1COc2c(N3CCC/C(=C(/F)CN)CC3)c(F)cc3c(=O)c(C(=O)O)cn1c23` [Compound 491, (3S)-9-[(Z)-4-(2-Amino-1-fluoro-ethylidene)-azepan-1-yl]-8-fluoro-3-methyl-6-oxo-2,3-dihydro-6H-1-oxa-3a-aza-phenalene-5-carboxylic Acid] the MIC [1] was 0.12 µg/mL (≈ 0.286 µM), the MIC [2] was 1 µg/mL (≈ 2.38 µM) and the MIC [4] was 8 µg/mL (≈ 19.1 µM). The MIC [5] was 16 µg/mL (≈ 38.1 µM).
